Assay results from the supplement of paper PMC10307832.

Compound: C=CCn1c(=O)c2cnc(Nc3ccc(N4CCN(C)CC4)cc3)nc2n1-c1cccc(C(C)(C)O)n1 [Adavosertib] + CC(=O)Nc1cccc(-n2c(=O)n(C3CC3)c(=O)c3c(Nc4ccc(I)cc4F)n(C)c(=O)c(C)c32)c1 [Trametinib] (partner 0.02 µM)
Assay: relative viability (nuclei count vs DMSO), 5 days (fraction); higher = more cells survive
Details: first compound 0.01 µM
How it was run: (§1)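 After 5 days of treatment, lung cancer cells in 1536-well plates were fixed and stained in a single step (final 0.05% Triton X-100, 1% formaldehyde, 1 ug/ml Hoechst) and their nuclei counted on 4× images. Treatment had been applied by pin tool the day after seeding as one drug alone or as a fixed anchor-drug dose with five library-drug doses (not always all listed) in √10 steps. Relative viability is the nuclei count of treated wells divided by that of vehicle wells, and values are medians of duplicate plates.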

Cell Line | relative viability
NCI-H460 | 0.179
NCI-H520 | 0.797
NCI-H596 | 0.81
NCI-H647 | 0.561
NCI-H650 | 0.935
NCI-H661 | 0.686
NCI-H727 | 0.427
NCI-H838 | 0.488
NCI-H1355 | 0.442
NCI-H1437 | 0.546
NCI-H1650 | 0.587
NCI-H1651 | 0.841
NCI-H1666 | 0.797
NCI-H1734 | 0.64
NCI-H1755 | 0.818
NCI-H1792 | 0.378

Cell Line | relative viability
NCI-H1915 | 0.329
NCI-H1975 | 0.303
NCI-H1993 | 0.42
NCI-H2009 | 0.291
NCI-H2023 | 0.575
NCI-H2085 | 0.544
NCI-H2087 | 0.217
NCI-H2126 | 0.571
NCI-H2347 | 0.287
NCI-H3122 | 0.201
PC-14 | 0.704
RERF-LC-KJ | 0.782
SK-LU-1 | 0.611
SW 1573 | 0.525
UMC-11 | 0.74

Same assay, conditions: first compound 0.03162 µM

Cell Line | relative viability
NCI-H460 | 0.137
NCI-H520 | 0.65
NCI-H596 | 0.79
NCI-H647 | 0.432
NCI-H650 | 1.01
NCI-H661 | 0.621
NCI-H727 | 0.383
NCI-H838 | 0.531
NCI-H1355 | 0.373
NCI-H1437 | 0.545
NCI-H1650 | 0.616
NCI-H1651 | 0.85
NCI-H1666 | 0.782
NCI-H1734 | 0.726
NCI-H1755 | 0.78
NCI-H1792 | 0.505
NCI-H1915 | 0.338

Cell Line | relative viability
NCI-H1975 | 0.309
NCI-H1993 | 0.449
NCI-H2009 | 0.308
NCI-H2023 | 0.521
NCI-H2085 | 0.568
NCI-H2087 | 0.204
NCI-H2126 | 0.528
NCI-H2347 | 0.327
NCI-H2405 | 0.63
NCI-H3122 | 0.198
PC-3 [JPC-3] | 0.667
PC-14 | 0.808
RERF-LC-KJ | 0.853
SK-LU-1 | 0.505
SW 1573 | 0.564
UMC-11 | 0.633

Same assay, conditions: first compound 0.1 µM

Cell Line | relative viability
NCI-H460 | 0.197
NCI-H520 | 0.634
NCI-H596 | 0.678
NCI-H647 | 0.428
NCI-H650 | 0.942
NCI-H661 | 0.68
NCI-H727 | 0.396
NCI-H838 | 0.503
NCI-H1355 | 0.445
NCI-H1437 | 0.484
NCI-H1650 | 0.539
NCI-H1651 | 0.864
NCI-H1666 | 1.02
NCI-H1734 | 0.711
NCI-H1755 | 0.818
NCI-H1792 | 0.448
NCI-H1915 | 0.322

Cell Line | relative viability
NCI-H1975 | 0.327
NCI-H1993 | 0.535
NCI-H2009 | 0.254
NCI-H2023 | 0.62
NCI-H2085 | 0.435
NCI-H2087 | 0.207
NCI-H2126 | 0.619
NCI-H2347 | 0.323
NCI-H2405 | 0.721
NCI-H3122 | 0.272
PC-3 [JPC-3] | 0.761
PC-14 | 0.862
RERF-LC-KJ | 0.851
SK-LU-1 | 0.509
SW 1573 | 0.605
UMC-11 | 0.743

Same assay, conditions: first compound 0.3162 µM

Cell Line | relative viability
NCI-H460 | 0.124
NCI-H520 | 0.629
NCI-H596 | 0.796
NCI-H647 | 0.415
NCI-H650 | 1.07
NCI-H661 | 0.486
NCI-H727 | 0.385
NCI-H838 | 0.582
NCI-H1355 | 0.457
NCI-H1437 | 0.414
NCI-H1650 | 0.574
NCI-H1651 | 0.871
NCI-H1666 | 0.813
NCI-H1734 | 0.711
NCI-H1755 | 0.744
NCI-H1792 | 0.42
NCI-H1915 | 0.33

Cell Line | relative viability
NCI-H1975 | 0.415
NCI-H1993 | 0.561
NCI-H2009 | 0.217
NCI-H2023 | 0.267
NCI-H2085 | 0.524
NCI-H2087 | 0.2
NCI-H2126 | 0.619
NCI-H2347 | 0.285
NCI-H2405 | 0.671
NCI-H3122 | 0.227
PC-3 [JPC-3] | 0.746
PC-14 | 0.683
RERF-LC-KJ | 0.929
SK-LU-1 | 0.316
SW 1573 | 0.638
UMC-11 | 0.615

Compound: C=CCn1c(=O)c2cnc(Nc3ccc(N4CCN(C)CC4)cc3)nc2n1-c1cccc(C(C)(C)O)n1 [Adavosertib] + Nc1ncn([C@H]2C[C@H](O)[C@@H](CO)O2)c(=O)n1 [Decitabine] (partner 2 µM)
Assay: as above
Details: first compound 0.01 µM
How it was run: as §1

Cell Line | relative viability
NCI-H460 | 0.569
NCI-H520 | 0.488
NCI-H596 | 1.1
NCI-H647 | 0.432
NCI-H650 | 0.352
NCI-H661 | 0.595
NCI-H727 | 0.843
NCI-H838 | 0.516
NCI-H1355 | 0.347
NCI-H1437 | 0.57
NCI-H1650 | 0.449
NCI-H1651 | 0.578
NCI-H1666 | 0.629
NCI-H1734 | 0.501
NCI-H1755 | 0.717
NCI-H1792 | 0.507

Cell Line | relative viability
NCI-H1915 | 0.262
NCI-H1975 | 0.37
NCI-H1993 | 0.58
NCI-H2009 | 0.362
NCI-H2023 | 0.203
NCI-H2085 | 0.547
NCI-H2087 | 0.24
NCI-H2126 | 0.518
NCI-H2347 | 0.637
NCI-H3122 | 0.41
PC-14 | 0.249
RERF-LC-KJ | 0.669
SK-LU-1 | 0.616
SW 1573 | 0.503
UMC-11 | 0.646

Same assay, conditions: first compound 0.03162 µM

Cell Line | relative viability
NCI-H460 | 0.449
NCI-H520 | 0.525
NCI-H596 | 1.02
NCI-H647 | 0.455
NCI-H650 | 0.319
NCI-H661 | 0.577
NCI-H727 | 0.845
NCI-H838 | 0.53
NCI-H1355 | 0.351
NCI-H1437 | 0.633
NCI-H1650 | 0.415
NCI-H1651 | 0.681
NCI-H1666 | 0.616
NCI-H1734 | 0.511
NCI-H1755 | 0.689
NCI-H1792 | 0.596
NCI-H1915 | 0.251

Cell Line | relative viability
NCI-H1975 | 0.412
NCI-H1993 | 0.593
NCI-H2009 | 0.419
NCI-H2023 | 0.224
NCI-H2085 | 0.504
NCI-H2087 | 0.347
NCI-H2126 | 0.596
NCI-H2347 | 0.595
NCI-H2405 | 0.761
NCI-H3122 | 0.49
PC-3 [JPC-3] | 0.906
PC-14 | 0.226
RERF-LC-KJ | 0.718
SK-LU-1 | 0.64
SW 1573 | 0.535
UMC-11 | 0.606

Same assay, conditions: first compound 0.1 µM

Cell Line | relative viability
NCI-H460 | 0.512
NCI-H520 | 0.555
NCI-H596 | 1.02
NCI-H647 | 0.456
NCI-H650 | 0.342
NCI-H661 | 0.489
NCI-H727 | 0.899
NCI-H838 | 0.612
NCI-H1355 | 0.396
NCI-H1437 | 0.636
NCI-H1650 | 0.564
NCI-H1651 | 0.603
NCI-H1666 | 0.73
NCI-H1734 | 0.474
NCI-H1755 | 0.775
NCI-H1792 | 0.645
NCI-H1915 | 0.272

Cell Line | relative viability
NCI-H1975 | 0.439
NCI-H1993 | 0.617
NCI-H2009 | 0.414
NCI-H2023 | 0.191
NCI-H2085 | 0.574
NCI-H2087 | 0.276
NCI-H2126 | 0.512
NCI-H2347 | 0.65
NCI-H2405 | 0.794
NCI-H3122 | 0.484
PC-3 [JPC-3] | 0.926
PC-14 | 0.259
RERF-LC-KJ | 0.775
SK-LU-1 | 0.631
SW 1573 | 0.663
UMC-11 | 0.608

Same assay, conditions: first compound 0.3162 µM

Cell Line | relative viability
NCI-H460 | 0.393
NCI-H520 | 0.473
NCI-H596 | 0.866
NCI-H647 | 0.322
NCI-H650 | 0.286
NCI-H661 | 0.4
NCI-H727 | 0.909
NCI-H838 | 0.497
NCI-H1355 | 0.368
NCI-H1437 | 0.618
NCI-H1650 | 0.27
NCI-H1651 | 0.525
NCI-H1666 | 0.703
NCI-H1734 | 0.363
NCI-H1755 | 0.725
NCI-H1792 | 0.669
NCI-H1915 | 0.282

Cell Line | relative viability
NCI-H1975 | 0.399
NCI-H1993 | 0.585
NCI-H2009 | 0.37
NCI-H2023 | 0.141
NCI-H2085 | 0.47
NCI-H2087 | 0.277
NCI-H2126 | 0.568
NCI-H2347 | 0.621
NCI-H2405 | 0.698
NCI-H3122 | 0.494
PC-3 [JPC-3] | 0.78
PC-14 | 0.101
RERF-LC-KJ | 0.714
SK-LU-1 | 0.461
SW 1573 | 0.291
UMC-11 | 0.654

Compound: COc1nc(N)nc2c1ncn2[C@@H]1O[C@H](CO)[C@@H](O)[C@@H]1O [Nelarabine] + C[C@@H](Oc1cc(-c2cnn(C3CCNCC3)c2)cnc1N)c1c(Cl)ccc(F)c1Cl [Crizotinib] (partner 1 µM)
Assay: as above
Details: first compound 0.01 µM
How it was run: as §1

Cell Line | relative viability
NCI-H460 | 1.32
NCI-H520 | 0.607
NCI-H596 | 0.948
NCI-H647 | 1.37
NCI-H650 | 0.627
NCI-H727 | 1.05
NCI-H838 | 0.975
NCI-H1355 | 1.44
NCI-H1437 | 1.27
NCI-H1650 | 1.07
NCI-H1651 | 0.959
NCI-H1666 | 1.03
NCI-H1734 | 0.694
NCI-H1755 | 0.941
NCI-H1792 | 0.821
NCI-H1915 | 1.23
NCI-H1975 | 1.15
